Experimental data as given in the NIST ThermoML archive (doi:10.1021/je7001946).

Assay: mn = molality of the nth substance listed, in mol/kg
Settings: 101.3 kPa, Liquid; for speed of sound: Pulse-echo method

[Br][Co][Br] [cobalt(II) bromide] + CC#N
Settings | mass density, 288.15 K [kg/m3] | mass density, 293.15 K [kg/m3] | mass density, 298.15 K [kg/m3] | mass density, 303.15 K [kg/m3] | mass density, 308.15 K [kg/m3] | mass density, 313.15 K [kg/m3] | mass density, 323.15 K [kg/m3] | speed of sound, 298.15 K [m/s]
m1 = 0.06384 | 797.529 | 792.118 | 786.677 | 781.218 | 775.72 | 770.192 | 759.026 | –
m1 = 0.08092 | 800.3 | 794.88 | 789.432 | 783.966 | 778.458 | 772.92 | 761.738 | –
m1 = 0.09698 | 802.926 | 797.495 | 792.044 | 786.563 | 781.049 | 775.5 | 764.302 | 1277
m1 = 0.1125 | 805.465 | 800.033 | 794.565 | 789.08 | 783.57 | 778.02 | 766.801 | –
m1 = 0.1286 | 808.142 | 802.7 | 797.232 | 791.742 | 786.222 | 780.656 | 769.421 | 1276
m1 = 0.1428 | 810.505 | 805.061 | 799.583 | 794.089 | 788.55 | 782.985 | 771.734 | –
m1 = 0.1587 | 813.161 | 807.703 | 802.224 | 796.713 | 791.168 | 785.595 | 774.335 | 1275.3
m1 = 0.19 | 818.466 | 812.988 | 807.489 | 801.964 | 796.411 | 790.822 | 779.533 | 1274.6
m1 = 0.2204 | 823.615 | 818.13 | 812.623 | 807.083 | 801.513 | 795.917 | 784.593 | 1273.9
m1 = 0.2527 | 829.214 | 823.715 | 818.194 | 812.642 | 807.057 | 801.45 | 790.088 | –
m1 = 0.2636 | 831.14 | 825.637 | 820.113 | 814.557 | 808.967 | 803.34 | 791.988 | 1273.2
m1 = 0.2777 | 833.591 | 828.085 | 822.557 | 816.995 | 811.404 | 805.778 | 794.405 | –
m1 = 0.3089 | 839.134 | 833.612 | 828.072 | 822.494 | 816.889 | 811.253 | 799.854 | 1272.1

[Br-].[Br-].[Mn+2] [manganese(II) bromide] + CC#N
Settings | mass density, 288.15 K [kg/m3] | mass density, 293.15 K [kg/m3] | mass density, 298.15 K [kg/m3] | mass density, 303.15 K [kg/m3] | mass density, 308.15 K [kg/m3] | mass density, 313.15 K [kg/m3] | mass density, 323.15 K [kg/m3] | speed of sound, 298.15 K [m/s]
m1 = 0.0415 | 793.652 | 788.26 | 782.85 | 777.408 | 771.942 | 766.441 | 755.33 | –
m1 = 0.0513 | 795.156 | 789.764 | 784.353 | 778.907 | 773.433 | 767.926 | 756.805 | –
m1 = 0.06115 | 796.676 | 791.28 | 785.862 | 780.415 | 774.941 | 769.432 | 758.311 | 1277.2
m1 = 0.07131 | 798.243 | 792.85 | 787.428 | 781.978 | 776.494 | 770.984 | 759.855 | –
m1 = 0.08138 | 799.819 | 794.414 | 788.989 | 783.537 | 778.054 | 772.539 | 761.403 | 1276.9
m1 = 0.09054 | 801.238 | 795.84 | 790.408 | 784.953 | 779.461 | 773.94 | 762.804 | –
m1 = 0.1006 | 802.824 | 797.413 | 791.982 | 786.518 | 781.03 | 775.513 | 764.368 | 1276.7
m1 = 0.1214 | 806.091 | 800.671 | 795.23 | 789.765 | 784.269 | 778.744 | 767.585 | –
m1 = 0.1406 | 809.125 | 803.696 | 798.249 | 792.776 | 787.272 | 781.741 | 770.567 | 1276.1
m1 = 0.1603 | 812.287 | 806.853 | 801.398 | 795.916 | 790.407 | 784.868 | 773.687 | –
m1 = 0.1712 | 814.024 | 808.58 | 803.121 | 797.634 | 792.128 | 786.584 | 775.396 | 1275.7
m1 = 0.1804 | 815.501 | 810.054 | 804.59 | 799.11 | 793.589 | 788.041 | 776.847 | –
m1 = 0.1995 | 818.585 | 813.117 | 807.642 | 802.149 | 796.622 | 791.065 | 779.856 | 1275.3

[Br-].[Br-].[Zn+2] [zinc bromide] + CC#N
Settings | mass density, 288.15 K [kg/m3] | mass density, 293.15 K [kg/m3] | mass density, 298.15 K [kg/m3] | mass density, 303.15 K [kg/m3] | mass density, 308.15 K [kg/m3] | mass density, 313.15 K [kg/m3] | mass density, 323.15 K [kg/m3] | speed of sound, 298.15 K [m/s]
m1 = 0.02964 | – | – | – | – | – | – | – | 1277.1
m1 = 0.03209 | 792.171 | 786.781 | 781.365 | 775.922 | 770.453 | 764.95 | 753.836 | –
m1 = 0.0404 | 793.435 | 788.04 | 782.622 | 777.179 | 771.701 | 766.197 | 755.075 | –
m1 = 0.04717 | 794.467 | 789.072 | 783.65 | 778.202 | 772.724 | 767.215 | 756.09 | 1276.4
m1 = 0.05609 | 795.839 | 790.436 | 785.044 | 779.559 | 774.08 | 768.567 | 757.437 | –
m1 = 0.06324 | 796.938 | 791.534 | 786.108 | 780.651 | 775.17 | 769.655 | 758.516 | 1275.7
m1 = 0.07124 | 798.167 | 792.766 | 787.332 | 781.876 | 776.393 | 770.874 | 759.73 | –
m1 = 0.07952 | 799.446 | 794.033 | 788.597 | 783.143 | 777.651 | 772.126 | 760.98 | 1275.1
m1 = 0.09524 | 801.876 | 796.466 | 791.02 | 785.546 | 780.047 | 774.52 | 763.359 | –
m1 = 0.1099 | 804.162 | 798.743 | 793.295 | 787.86 | 782.357 | 776.822 | 765.649 | 1273.6
m1 = 0.1252 | 806.567 | 801.138 | 795.677 | 790.202 | 784.687 | 779.149 | 767.969 | –
m1 = 0.1317 | 807.593 | 802.157 | 796.698 | 791.221 | 785.702 | 780.162 | 768.971 | 1272.5
m1 = 0.1402 | 808.922 | 803.487 | 798.026 | 792.539 | 787.024 | 781.476 | 770.273 | –
m1 = 0.1554 | – | – | – | – | – | – | – | 1271.2
